Source: patent US6977254B2, “Hydroxy cyclohexenyl phenyl carboxamides tocolytic oxytocin receptor antagonists” (Wyeth, priority 2001, dated 2005)

Target: T1, human vasopressin V1a receptor subtype (Homo sapiens, UniProt P37288)
T1 construct: host or cells: CHO cells, stably transfected (pZeoSV vector for the Thibonnier line); membranes
Assay: Vasopressin binding in CHO cell membranes expressing human vasopressin V1a subtype receptors ([3H]Manning ligand)
Settings: for IC50: value in parentheses; for inhibition at 0.1 µM / V1a % inhibition @ 100 nM: 100 nM, value without parentheses
Text: Vasopressin Binding in Chinese Hamster Ovary Cell Membranes Expressing Human Vasopressin V1a Subtype Receptors
Chinese hamster ovary cells (CHO cells) stably transfected with the human vasopressin V1a subtype receptors were either obtained from Biosignal Inc., 1744 rue Williams, Montreal, Quebec, Canada or obtained from M. Thibonnier, Case Western Reserve University School of Medicine, Cleveland, Ohio.
A. Passaging and Amplification of Cells:
CHO cells transfected with the human vasopressin V1a subtype receptors obtained from M. Thibonnier (pZeoSV vector) are allowed to grow to confluency (approx. >90%) in T-150 flasks under sterile conditions, in a cell culture medium of F-12 Nutrient Mixture (HAM) with L-glutamine (Gibco Cat. #11765-054) containing 15 mM HEPES (Gibco Cat. #15630-080), 1% antibiotic/antimycotic (add 5 mL 100×, Gibco Cat. #15240-062 per 500 mL F-12), 250 μg/mL Zeocin (add 1.25 mL of 100 mg/mL Invitrogen R-250-01 per 500 mL F-12) and 10% Fetal Bovine Serum (Qualified, heat inactivated, Gibco Cat. #16140-063). The medium is removed by aspiration and the cells are washed with 10 mL of Hank's Balanced Salt solution (Gibco Cat. #14175-095). The salt solution is removed by aspiration and the cells are trypsinized with 5 mL of trypsin-EDTA (0.05% trypsin, 0.53 mM EDTA-4Na, Gibco Cat. #25300-070) for 1 min. The trypsin is removed by aspiration and the cells dislodged by tapping. Cell Culture medium (eg, 30 mL for 1:30 split) is immediately added and mixed well to inactivate trypsin. 1 mL of detached cells is added to new culture flasks containing fresh cell culture medium (eg, into 25 mL per T-150 flask), and mixed gently. The cells are incubated at 37° C. in 5% CO2. The medium is changed at 3 to 4 days interval (or as appropriate). The cells grow to confluency (approx. >75%-95%) within 7-8 days. All steps are done under sterile conditions.
The cells are washed twice gently with Hank's Balanced Salt solution (e.g,. use 10 mL per T-150 flask). The excess is removed and the cells are bathed for 15-30 min. in an enzyme-free Cell Dissociation Buffer (e.g. use 8 mL Hank's Based, Gibco Cat. #13150-016 per T-150 flask) until the cells are loosened. The contents are transferred to centrifuge tubes (50 mL size) kept in ice bath. All subsequent steps are done at 4° C. The tubes are centrifuged at 300×g for 15 min (1380 rpm on SORVAL, Model RT6000D, using rotor for 50 mL tubes). The supernatant is discarded and the cells suspended in homogeneizing buffer(10 mM Tris-HCl containing 0.25 M sucrose and 1 mM EDTA, pH 7.4) ensuring that the volume of the buffer is about ten times the volume of the cell pellet. The cells are pooled into a centrifuge tube (50 mL) and homogenized with Polytron at setting 6 for 10 sec. The homogenate is transferred into a Potter-Elvjehm homogenizer and homogenized with 3 strokes. The homogenate is centrifuged at 1500×g for 10 min at 4° C. (3100 rpm using SORVAL, model RT6000D, using rotor for 50 mL tubes). The pellet is discarded. The supernatant is centrifuged at 100,000×g for 60 min. at 4° C. (Beckman L8-80M ultracentrifuge; spin at 37,500 rpm with rotor type 70 Ti for 50 mL tubes; 38,000 rpm with type 80Ti for 15 mL tubes; or 35,800 rpm with rotor type 45Ti). The supemantant is discarded and the pellet suspended in 3 to 4 mL of Tris buffer (50 mM TRIS-HCl, pH 7.4). The protein content is estimated by the Bradford or Lowry method. The volume of the membrane suspension is adjusted with the membrane buffer (50 mM Tris-HCl containing 0.1% BSA and 0.1 mM PMSF) to give 3.0 mg/mL (or as appropriate) of protein. The membranes are aliquoted and stored at −70° C.
C. Radioligand Binding Assay: […]

T1 sequence (P37288 whole entry): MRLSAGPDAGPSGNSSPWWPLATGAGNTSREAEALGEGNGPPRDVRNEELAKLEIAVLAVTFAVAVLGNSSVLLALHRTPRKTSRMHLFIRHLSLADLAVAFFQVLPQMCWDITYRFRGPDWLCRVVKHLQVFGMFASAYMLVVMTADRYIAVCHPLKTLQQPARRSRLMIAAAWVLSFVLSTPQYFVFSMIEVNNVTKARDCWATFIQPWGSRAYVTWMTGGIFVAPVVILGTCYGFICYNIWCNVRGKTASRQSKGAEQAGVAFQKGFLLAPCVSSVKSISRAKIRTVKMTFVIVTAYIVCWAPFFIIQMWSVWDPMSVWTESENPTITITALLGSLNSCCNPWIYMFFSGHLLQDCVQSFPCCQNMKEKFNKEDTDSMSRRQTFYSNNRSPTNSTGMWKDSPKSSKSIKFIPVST

Structure (SMILES)	IC50	inhibition at 0.1 µM	other results
COc1cc(C2=CCCCC2)c(Cl)cc1C(=O)N1Cc2ccc(C(=O)N(C)C[C@H](O)[C@@H](O)[C@H](O)[C@H](O)CO)n2Cc2ccccc21 [Example 1, 1-[[[10-[5-Chloro-4-(1-cyclohex-1-en-1-yl)-2-methoxybenzoyl]-10,11-dihydro-5H-pyrrolo[2,1-c][1,4]benzodiazepin-3-yl]carbonyl]methylamino]-1-deoxy-D-glucitol]	0.879 µM	–	–
COc1cc(C2=CCCCC2)c(Cl)cc1C(=O)N1Cc2ccc(C(=O)O)n2Cc2ccccc21 [Example 1G, 10-(5-Chloro-4-cyclohex-1-en-1-yl-2-methoxybenzoyl)-10,11-dihydro-5H-pyrrolo[2,1-c][1,4]benzodiazepine-3-carboxylic acid]	–	0%	–
COC[C@@H](OC)[C@@H](OC)[C@H](OC)[C@H](CN(C)C(=O)c1ccc2n1Cc1ccccc1N(C(=O)c1cc(Cl)c(C3=CCCCC3)cc1OC)C2)OC [Example 2, 10-(5-Chloro-4-cyclohex-1-en-1-yl-2-methoxybenzoyl)-N-methyl-N-[(2S,3R,4R,5R)-2,3,4,5,6-pentamethoxyhexyl]-10,11-dihydro-5H-pyrrolo[2,1-c][1,4]benzodiazepine-3-carboxamide]	2.19 µM	–	–
COc1cc(C2=CCCCC2)c(Cl)cc1C(=O)N1Cc2ccc(C(=O)N(C)C[C@@H]3OC(=O)O[C@H]3[C@H](O)[C@H]3COC(=O)O3)n2Cc2ccccc21 [Example 3, 10-(5-Chloro-4-cyclohex-1-en-1-yl-2-methoxybenzoyl)-N-[((4S,5S)-5-{(R)-hydroxy[(4R)-2-oxo-1,3-dioxolan-4-yl]methyl}-2-oxo-1,3-dioxolan-4-yl)methyl]-N-methyl-10,11-dihydro-5H-pyrrolo[2,1-c][1,4]benzodiazepine-3-carboxamide]	1.46 µM	–	–
COc1cc(C2=CCCCC2)c(Cl)cc1C(=O)N1Cc2ccc(C(=O)N(C)CC(O)CO)n2Cc2ccccc21 (stereo not shown) [Example 4, 10-(5-Chloro-4-cyclohex-1-en-1-yl-2-methoxybenzoyl)-N-(2,3-dihydroxypropyl)-N-methyl-10,11-dihydro-5H-pyrrolo[2,1-c][1,4]benzodiazepine-3-carboxamide]	0.613 µM	–	–
Cc1cc(C(=O)N2Cc3ccc(C(=O)C(Cl)(Cl)Cl)n3Cc3ccccc32)ccc1C1=CCCCC1 [Example 5D, 2,2,2-Trichloro-1-[10-(4-cyclohex-1-en-1-yl-3-methyl-benzoyl)-10,11-dihydro-5H-pyrrolo[2,1-c][1,4]benzodiazepin-3-yl]-methanone]	–	–	V1a % inhibition @ 100 nM: 0%
Cc1cc(C(=O)N2Cc3ccc(C(=O)O)n3Cc3ccccc32)ccc1C1=CCCCC1 [Example 5E, 10-(4-Cyclohex-1-en-1-yl-3-methyl-benzoyl)-10,11-dihydro-5H-pyrrolo[2,1-c][1,4]benzodiazepine-3-carboxylic acid]	–	8%	–
Cc1cc(C(=O)N2Cc3ccc(C(=O)N(C)C[C@H](O)[C@@H](O)[C@H](O)[C@H](O)CO)n3Cc3ccccc32)ccc1C1=CCCCC1 [Example 5]	0.182 µM	–	–
Cc1cc(C(=O)N2Cc3ccc(C(=O)N(C)C[C@H](O)[C@H]4OC(=O)O[C@@H]4[C@H](O)CO)n3Cc3ccccc32)ccc1C1=CCCCC1 [Example 6, 10-(4-Cyclohex-1-en-1-yl-3-methylbenzoyl)-N-((2S)-2-{(4R,5R)-5-[(1R)-1,2-dihydroxyethyl]-2-oxo-1,3-dioxolan-4-yl}-2-hydroxyethyl)-N-methyl-10,11-dihydro-5H-pyrrolo[2,1-c][1,4]benzodiazepine-3-carboxamide]	0.0624 µM	–	–
Cc1cc(C(=O)N2Cc3ccc(C(=O)N(C)C[C@@H]4OC(=O)O[C@H]4[C@H](O)[C@H]4COC(=O)O4)n3Cc3ccccc32)ccc1C1=CCCCC1 [Example 7, 10-(4-Cyclohex-1-en-1-yl-3-methylbenzoyl)-N-[((4S,5S)-5-{(R)-hydroxy[(4R)-2-oxo-1,3-dioxolan-4-yl]methyl}-2-oxo-1,3-dioxolan-4-yl)methyl]-N-methyl-10,11-dihydro-5H-pyrrolo[2,1-c][1,4]benzodiazepine-3-carboxamide]	–	62%	–
COC[C@@H](OC)[C@@H](OC)[C@H](OC)[C@H](CN(C)C(=O)c1ccc2n1Cc1ccccc1N(C(=O)c1ccc(C3=CCCCC3)c(C)c1)C2)OC [Example 8, 10-(4-Cyclohex-1-en-1-yl-3-methylbenzoyl)-N-methyl-N-[(2S,3R,4R,5R)-2,3,4,5,6-pentamethoxyhexyl]-10,11-dihydro-5H-pyrrolo[2,1-c][1,4]benzodiazepine-3-carboxamide]	0.315 µM	–	–
CCOC(=O)[C@H](Cc1ccc(O)cc1)NC(=O)c1ccc2n1Cc1ccccc1N(C(=O)c1ccc(C3=CCCCC3)c(C)c1)C2 [Example 9, (2S)-2-{[10-(4-Cyclohex-1-en-1-yl-3-methyl-benzoyl)-10,11-dihydro-5H-pyrrolo[2,1-c][1,4]benzodiazepine-3-carbonyl]-amino}-3-(4-hydroxy-phenyl)-propionic acid ethyl ester]	–	6%	–
Cc1cc(C(=O)N2Cc3ccc(C(=O)N[C@@H](Cc4ccc(O)cc4)C(=O)O)n3Cc3ccccc32)ccc1C1=CCCCC1 [Example 10]	–	–	V1a % inhibition @ 100 nM: 14%
COC(=O)[C@H](CO)NC(=O)c1ccc2n1Cc1ccccc1N(C(=O)c1ccc(C3=CCCCC3)c(C)c1)C2 [Example 11, (2S)-2-{[10-(4-Cyclohex-1-en-1-yl-3-methyl-benzoyl)-10,11-dihydro-5H-pyrrolo[2,1-c][1,4]benzodiazepine-3-carbonyl]-amino}-3-hydroxy-propionic acid methyl ester]	–	6%	–
COC(=O)[C@@H](CO)NC(=O)c1ccc2n1Cc1ccccc1N(C(=O)c1ccc(C3=CCCCC3)c(C)c1)C2 [Example 12, (2R)-2-{[10-(4-Cyclohex-1-en-1-yl-3-methyl-benzoyl)-10,11-dihydro-5H-pyrrolo[2,1-c][1,4]benzodiazepine-3-carbonyl]-amino}-3-hydroxy-propionic acid methyl ester]	–	16%	–
Cc1cc(C(=O)N2Cc3ccc(C(=O)N[C@@H](CO)C(=O)O)n3Cc3ccccc32)ccc1C1=CCCCC1 [Example 13, (2S)-2-{[10-(4-Cyclohex-1-en-1-yl-3-methyl-benzoyl)-10,11-dihydro-5H-pyrrolo[2,1-c][1,4]benzodiazepine-3-carbonyl]-amino}-3-hydroxy-propionic acid]	–	5%	–
Cc1cc(C(=O)N2Cc3ccc(C(=O)N[C@H](CO)C(=O)O)n3Cc3ccccc32)ccc1C1=CCCCC1 [Example 14, (2R)-2-{[10-(4-Cyclohex-1-en-1-yl-3-methyl-benzoyl)-10,11-dihydro-5H-pyrrolo[2,1-c][1,4]benzodiazepine-3-carbonyl]-amino}-3-hydroxy-propionic acid]	–	6%	–
Cc1cc(C(=O)N2Cc3ccc(C(=O)O)n3Cc3ccccc32)ccc1C1=CCCc2ccccc21 [Example 15B, 10-[4-(3,4-Dihydro-naphthalen-1-yl)-3-methyl-benzoyl]-10,11-dihydro-5H-pyrrolo[2,1-c][1,4]benzodiazepine-3-carboxylic acid]	–	-2%	–
Cc1cc(C(=O)N2Cc3ccc(C(=O)N(C)C[C@H](O)[C@@H](O)[C@H](O)[C@H](O)CO)n3Cc3ccccc32)ccc1C1=CCCc2ccccc21 [Example 15]	0.646 µM	–	–
